Active and inactive are the calls of the source. No cut-off for these calls is given here.
Experiments:
[1] = molecular target: Protein-arginine deiminase type-2 (Mus musculus) (UniProt Q08642); assay: Inhibition of full length recombinant mouse N-terminal GST-tagged PAD2 expressed in baculovirus infected Sf9 cells up to 10 mM using benzoyl arginine ethyl ester as substrate preincubated for 30 mins followed by substrate addition measured after 30 mins by colorimetric assay
[2] = molecular target: T1, Protein-arginine deiminase type-4 (Homo sapiens, UniProt Q9UM07); assay: Inhibition of full length recombinant human N-terminal GST-tagged PAD4 expressed in baculovirus infected Sf9 cells up to 10 mM using benzoyl arginine ethylester as substrate preincubated for 30 mins followed by substrate addition measured after 30 mins by colorimetric assay
[3] = molecular target: T2, Protein-arginine deiminase type-1 (Homo sapiens) (UniProt Q9ULC6); assay: Inhibition of human PAD1 up to 10 mM using benzoyl arginine ethylester as substrate preincubated for 30 mins followed by substrate addition measured after 30 mins by colorimetric assay
T2 sequence (whole entry): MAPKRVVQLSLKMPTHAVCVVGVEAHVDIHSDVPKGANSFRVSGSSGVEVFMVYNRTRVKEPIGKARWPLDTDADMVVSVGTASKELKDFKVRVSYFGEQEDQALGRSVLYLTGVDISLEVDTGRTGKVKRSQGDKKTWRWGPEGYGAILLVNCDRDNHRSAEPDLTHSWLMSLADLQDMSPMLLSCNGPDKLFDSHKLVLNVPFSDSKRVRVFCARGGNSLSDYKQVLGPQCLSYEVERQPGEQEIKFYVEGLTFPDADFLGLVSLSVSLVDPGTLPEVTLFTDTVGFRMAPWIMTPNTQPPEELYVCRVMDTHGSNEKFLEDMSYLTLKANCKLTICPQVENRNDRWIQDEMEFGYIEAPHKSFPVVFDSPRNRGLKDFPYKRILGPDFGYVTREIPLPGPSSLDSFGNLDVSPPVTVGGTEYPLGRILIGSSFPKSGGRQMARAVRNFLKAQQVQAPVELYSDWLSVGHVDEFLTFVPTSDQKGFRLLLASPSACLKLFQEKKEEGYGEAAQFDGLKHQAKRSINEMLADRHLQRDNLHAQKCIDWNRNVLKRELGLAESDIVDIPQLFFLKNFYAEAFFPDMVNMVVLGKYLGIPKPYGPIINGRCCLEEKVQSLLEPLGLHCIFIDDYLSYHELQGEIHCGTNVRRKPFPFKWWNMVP

[4] = molecular target: Protein-arginine deiminase type-2 (Mus musculus, UniProt Q08642); assay: Inhibition of full length recombinant mouse N-terminal GST-tagged PAD2 expressed in baculovirus infected Sf9 cells using benzoyl arginine ethyl ester as substrate preincubated for 30 mins followed by substrate addition measured after 30 mins by colorimetric assay
[5] = molecular target: T1, Protein-arginine deiminase type-4; assay: Inhibition of full length recombinant human N-terminal GST-tagged PAD4 expressed in baculovirus infected Sf9 cells using benzoyl arginine ethylester as substrate preincubated for 30 mins followed by substrate addition measured after 30 mins by colorimetric assay
[6] = system: Mus musculus; assay: Antiinflammatory activity in MOG peptide/complete freund's adjuvant/pertussis toxin-induced C57BL/6 mouse autoimmune encephalomyelitis model assessed as improvement in physical disability at 100 mg/kg, ip administered once daily for 40 days measured daily during compound dosing; type: functional, organism-based
[7] = system: Mus musculus; assay: Toxicity in MOG peptide/complete freund's adjuvant/pertussis toxin-induced C57BL/6 mouse autoimmune encephalomyelitis model assessed as change in body weight at 50 mg/kg, ip administered once daily for 40 days measured during compound dosing; type: organism-based; conditions: in vivo, 960 h
[8] = Toxicity in MOG peptide/complete freund's adjuvant/pertussis toxin-induced C57BL/6 mouse autoimmune encephalomyelitis model assessed as death at 50 mg/kg, ip administered once daily for 40 days measured during compound dosing (reference value: 20%); type: organism-based; conditions: in vivo, read-out: Activity
[9] = system: Mus musculus; assay: Antiinflammatory activity in MOG peptide/complete freund's adjuvant/pertussis toxin-induced C57BL/6 mouse autoimmune encephalomyelitis model assessed as reduction in accumulation of CD3 positive cells in brain at 100 mg/kg, ip administered once daily for 40 days measured post last dose; type: functional, organism-based
[10] = system: Mus musculus; assay: Antiinflammatory activity in MOG peptide/complete freund's adjuvant/pertussis toxin-induced C57BL/6 mouse autoimmune encephalomyelitis model assessed as reduction in accumulation of MAC3 positive cells in brain at 100 mg/kg, ip administered once daily for 40 days measured post last dose; type: functional, organism-based
[11] = system: Mus musculus; assay: (§1) Antiinflammatory activity in MOG peptide/complete freund's adjuvant/pertussis toxin-induced C57BL/6 mouse autoimmune encephalomyelitis model assessed as increase in myelin content at 100 mg/kg, ip administered once daily for 40 days measured post last dose by LFB /H and E staining based assay; type: functional, organism-based
[12] = system: Mus musculus; assay: as §1, with “activity” for “activity in”, “reduction” for “increase”, “scar tissue around blood vessels in brain” for “myelin content”, “LFB/H” for “LFB /H”; type: functional, organism-based
[13] = Elimination rate constant in C57BL/6 mouse brain at 100 mg/kg, ip administered as single dose by UPLC-MS analysis; type: ADME, organism-based
[14] = Elimination rate constant in C57BL/6 mouse serum at 100 mg/kg, ip administered as single dose by UPLC-MS analysis; type: ADME, organism-based
[15] = AUC (0 to 360 mins) in C57BL/6 mouse serum at 100 mg/kg, ip administered as single dose by UPLC-MS analysis; type: ADME, organism-based; design: time < 6 hr, dose 100 mg/kg, route intraperitoneal
[16] = system: Mus musculus; assay: Neuroprotective activity in CPZ-induced demyelination C57BL/6 mouse model assessed as increase in myelin content at 100 mg/kg, ip dosed daily for 6 weeks measured post last dose by LFB staining based immunohistochemical method; type: functional, organism-based
[17] = Half life in C57BL/6 mouse serum at 100 mg/kg, ip administered as single dose by UPLC-MS analysis; type: ADME, organism-based
[18] = Cmax in C57BL/6 mouse serum at 100 mg/kg, ip administered as single dose by UPLC-MS analysis; type: ADME, organism-based; design: dose 100 mg/kg, route intraperitoneal
[19] = Tmax in C57BL/6 mouse serum at 100 mg/kg, ip administered as single dose by UPLC-MS analysis; type: ADME, organism-based
[20] = Half life in C57BL/6 mouse brain at 100 mg/kg, ip administered as single dose by UPLC-MS analysis; type: ADME, organism-based
[21] = Cmax in C57BL/6 mouse brain at 100 mg/kg, ip administered as single dose by UPLC-MS analysis; type: ADME, organism-based; design: dose 100 mg/kg, route intraperitoneal
[22] = Tmax in C57BL/6 mouse brain at 100 mg/kg, ip administered as single dose by UPLC-MS analysis; type: ADME, organism-based
[23] = AUC (0 to 360 mins) in C57BL/6 mouse brain at 100 mg/kg, ip administered as single dose by UPLC-MS analysis; type: ADME, organism-based; design: dose 100 mg/kg, time < 6 hr, route intraperitoneal
[24] = system: Mus musculus; assay: Antiinflammatory activity in MOG peptide/complete freund's adjuvant/pertussis toxin-induced C57BL/6 mouse autoimmune encephalomyelitis model assessed as improvement in physical disability at 50 mg/kg, ip administered once daily for 40 days measured daily during compound dosing; type: functional, organism-based
[25] = Toxicity in MOG peptide/complete freund's adjuvant/pertussis toxin-induced C57BL/6 mouse autoimmune encephalomyelitis model assessed as death at 100 mg/kg, ip administered once daily for 40 days measured during compound dosing (reference value: 21%); type: organism-based; conditions: in vivo, read-out: Activity
[26] = system: Mus musculus; assay: Antiinflammatory activity in ip dosed MOG peptide/complete freund's adjuvant/pertussis toxin-induced C57BL/6 mouse autoimmune encephalomyelitis model assessed as improvement in physical disability administered once daily for 40 days measured daily during compound dosing; type: functional, organism-based
[27] = system: Mus musculus; assay: as §1, with “reduction” for “increase”, “inflammatory lesions in brain” for “myelin content”, “hematoxylin” for “LFB /H”, “eosin/Luxol-fast blue” for “E”; type: functional, organism-based
[28] = system: Mus musculus; assay: Toxicity in MOG peptide/complete freund's adjuvant/pertussis toxin-induced C57BL/6 mouse autoimmune encephalomyelitis model assessed as change in body weight at 100 mg/kg, ip administered once daily for 40 days measured during compound dosing; type: organism-based; conditions: in vivo, 960 h
[29] = molecular target: T3, Protein-arginine deiminase type-1 (Homo sapiens, UniProt Q9ULC6); assay: Inhibition of human PAD1 using BAEE as substrate preincubated for 30 mins followed by substrate addition measured after 30 mins by colorimetric assay
T3 sequence (Q9ULC6 whole entry): T2 sequence (whole entry)

T1 sequence (Q9UM07 whole entry): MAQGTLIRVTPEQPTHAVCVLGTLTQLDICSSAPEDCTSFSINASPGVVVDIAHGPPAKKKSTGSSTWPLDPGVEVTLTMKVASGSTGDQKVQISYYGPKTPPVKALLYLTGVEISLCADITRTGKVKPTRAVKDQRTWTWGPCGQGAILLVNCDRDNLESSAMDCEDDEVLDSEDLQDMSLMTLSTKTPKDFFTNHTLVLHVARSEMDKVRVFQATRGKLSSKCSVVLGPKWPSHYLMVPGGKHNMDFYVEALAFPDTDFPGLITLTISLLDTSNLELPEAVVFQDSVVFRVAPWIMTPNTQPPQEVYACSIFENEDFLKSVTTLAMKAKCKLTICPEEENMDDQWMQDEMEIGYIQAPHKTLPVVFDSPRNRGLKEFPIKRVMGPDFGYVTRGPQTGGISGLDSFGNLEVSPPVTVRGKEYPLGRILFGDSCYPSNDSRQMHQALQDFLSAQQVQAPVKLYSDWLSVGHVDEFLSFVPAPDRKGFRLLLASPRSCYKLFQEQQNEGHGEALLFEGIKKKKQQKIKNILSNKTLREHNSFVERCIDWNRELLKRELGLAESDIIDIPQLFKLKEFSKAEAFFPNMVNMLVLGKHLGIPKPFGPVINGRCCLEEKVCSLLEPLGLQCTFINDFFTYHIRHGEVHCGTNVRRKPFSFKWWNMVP
Sequence of Protein-arginine deiminase type-2 (Mus musculus) (Q08642 whole entry): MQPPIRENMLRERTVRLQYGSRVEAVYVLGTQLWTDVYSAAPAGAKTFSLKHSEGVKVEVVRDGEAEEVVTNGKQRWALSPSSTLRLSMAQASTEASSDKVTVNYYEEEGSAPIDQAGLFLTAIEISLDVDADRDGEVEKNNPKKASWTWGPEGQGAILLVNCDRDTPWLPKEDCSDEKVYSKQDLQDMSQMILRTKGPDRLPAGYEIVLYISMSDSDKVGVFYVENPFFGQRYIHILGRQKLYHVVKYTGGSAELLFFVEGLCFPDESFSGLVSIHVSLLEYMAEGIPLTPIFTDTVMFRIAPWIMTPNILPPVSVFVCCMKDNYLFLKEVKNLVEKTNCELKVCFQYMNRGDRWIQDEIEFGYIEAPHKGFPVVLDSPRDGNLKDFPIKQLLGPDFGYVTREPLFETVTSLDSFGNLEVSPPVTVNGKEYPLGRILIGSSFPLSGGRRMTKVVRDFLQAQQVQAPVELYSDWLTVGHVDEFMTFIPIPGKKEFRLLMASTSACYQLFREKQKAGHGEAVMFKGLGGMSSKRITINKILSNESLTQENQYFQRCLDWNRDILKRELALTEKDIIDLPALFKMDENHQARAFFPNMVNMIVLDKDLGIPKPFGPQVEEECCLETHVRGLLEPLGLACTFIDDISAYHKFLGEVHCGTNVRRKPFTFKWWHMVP
Sequence of Protein-arginine deiminase type-2 (Q08642 whole entry): as above

## CC(C)c1nccn1CCN1C(=O)NC(C)(C)C1=O
[1]
  inhibition: inactive
[2]
  inhibition: inactive
[3]
  inhibition: inactive

## CC1(C)NC(=O)N(CCn2ccnn2)C1=O
[1]
  inhibition: inactive
[2]
  inhibition: inactive
[3]
  inhibition: inactive

## CN1CCN(CCN2C(=O)NC(C)(C)C2=O)CC1
[1]
  inhibition: inactive
[2]
  inhibition: inactive
[3]
  inhibition: inactive

## CC1(C)NC(=O)N(CCn2ccnc2)C1=O
[4]
  Ki: 4620 µM
[5]
  Ki: 632 µM
[6]
  Activity: Active
[7]
  Activity: Non-Toxic
[8]
  mortality at 960 h: 29%
[9]
  Activity: Active
[10]
  Activity: Active
[11]
  Activity: Active
[12]
  Activity: Active
[13]
  k el: 0.000117 s⁻¹
[14]
  k el: 0.000917 s⁻¹
[15]
  AUC(0-t) at 6 h: 28000 ng·h/mL
[16]
  Activity: Active
[17]
  half-life: 12.6 min
[18]
  Cmax: 79900 ng/mL
[19]
  Tmax: 5 min
[20]
  half-life: 99 min
[21]
  Cmax: 7.3 ng/mL
[22]
  Tmax: 45 min
[23]
  AUC(0-t) at 6 h: 12.3 ng·h/mL
[3]
  inhibition: inactive
[24]
  Activity: inactive
[25]
  mortality at 960 h: 0%
[26]
  Activity: Dose-dependent effect
[27]
  Activity: Active
[28]
  Activity: Non-Toxic

## CC1(C)NC(=O)N(CCN2CCOCC2)C1=O
[5]
  Ki: 1430 µM
[29]
  Ki: 602 µM

## CC1(C)NC(=O)N(CCc2nnn[nH]2)C1=O
[4]
  Ki: 30 µM
[29]
  Ki: 384 µM
[6]
  Activity: Active
[9]
  Activity: Active
[10]
  Activity: Active
[25]
  mortality at 960 h: 8%
[27]
  Activity: Active
[28]
  Activity: Non-Toxic

## Cc1nccn1CCN1C(=O)NC(C)(C)C1=O
[29]
  Ki: 2420 µM
[1]
  inhibition: inactive
[2]
  inhibition: inactive

## Cc1cnc(C)n1CCN1C(=O)NC(C)(C)C1=O
[1]
  inhibition: inactive
[2]
  inhibition: inactive
[3]
  inhibition: inactive

## CC1(C)NC(=O)N(CCN2CCCC2)C1=O
[5]
  Ki: 4640 µM
[1]
  inhibition: inactive
[3]
  inhibition: inactive

## Cc1cn(CCN2C(=O)NC(C)(C)C2=O)cn1
[1]
  inhibition: inactive
[2]
  inhibition: inactive
[3]
  inhibition: inactive

## CC1(C)NC(=O)N(CN2CCNCC2)C1=O
[4]
  Ki: 179 µM
[5]
  Ki: 183 µM
[29]
  Ki: 445 µM
[6]
  Activity: Active
[28]
  Activity: Non-Toxic

## CC1(C)NC(=O)N(CCn2cncc2CO)C1=O
[1]
  inhibition: inactive
[2]
  inhibition: inactive
[3]
  inhibition: inactive

## CC1(C)NC(=O)N(CCn2cncn2)C1=O
[1]
  inhibition: inactive
[2]
  inhibition: inactive
[3]
  inhibition: inactive

## CC1(C)NC(=O)N(CCN2CCNCC2)C1=O
[4]
  Ki: 714 µM
[2]
  inhibition: inactive
[3]
  inhibition: inactive
